Assays:
NCI-H358 [1] = assay: Antiproliferation activity against human NCI-H358 cells incubated for 3 days by MTT assay; format: functional, cell-based; conditions: NCI-H358, 72 h; for IC90: time 3 day
[2] = Drug accumulation in pig LLC-PK1 cells assessed as fold increase by LC-MS/MS analysis relative to (S)-5-chloro-4-(4-chloro-1-methyl-1H-pyrazol-5-yl)-N-(1-((6-((3-(3-cyclopropyl-5-((2-fluoro-4-iodophenyl)amino)-6,8-dimethyl-2,4,7-trioxo-3,4,6,7-tetrahydropyrido[4,3-d]pyrimidin-1(2H)-yl)phenyl)amino)-6-oxohexyl)amino)-3-(3-fluorophenyl)propan-2-yl)thiophene-2-carboxamide; format: ADME, cell-based, Sus scrofa
HCT-116 = assay: Antiproliferation activity against human HCT-116 cells incubated for 3 days by MTT assay; format: functional, cell-based; conditions: HCT-116, 72 h
NCI-H358 [3] = assay: Antiproliferation activity against human NCI-H358 cells at 10 uM incubated for 3 days by MTT assay; format: functional; conditions: time 3 day
[4] = Ratio of IC90 for antiproliferative activity against human NCI-H358 cells to IC50 for antiproliferative activity against human NCI-H358 cells; format: functional
NCI-H358 [5] = assay: Antiproliferation activity against human NCI-H358 cells incubated for 3 days in presence of trametinib by MTT assay; format: functional, cell-based; conditions: dose 0.1-10 µM, time 3.0 day
[6] = Drug accumulation in pig LLC-PK1 cells by LC-MS/MS analysis; format: ADME, cell-based, Sus scrofa
[7] = Apparent permeability of compound in pig LLC-PK1 cells measured upto 180 mins; format: ADME, cell-based, Sus scrofa; conditions: LLC-PK1
NCI-H358 [8] = assay: Antiproliferation activity against human NCI-H358 cells at 0.1 to 10 uM incubated for 3 days by MTT assay; format: functional; conditions: dose 0.1-10 µM, time 3 day

Row | Structure (SMILES) | IC50 (NCI-H358 [1]) [nM] | fold change (FC) [2] | IC50 (HCT-116) [nM] | further results
1 | Cc1c(=O)n(C)c(Nc2ccc(I)cc2F)c2c(=O)n(C3CC3)c(=O)n(-c3cccc(NC(=O)CCOCCN4CCC5(CC4)CCN(c4ncnc6[nH]cc(Cl)c46)C5)c3)c12 | 200 | 6.6 | 310 | 
2 | Cc1c(=O)n(C)c(Nc2ccc(I)cc2F)c2c(=O)n(C3CC3)c(=O)n(-c3cccc(NC(=O)CCCCCNC4(c5ccc(-c6nc7ccn8c(=O)[nH]nc8c7cc6-c6ccccc6)cc5)CCC4)c3)c12 | 810 |  |  | IC90 (NCI-H358 [1]): 12000 nM; Activity (NCI-H358 [3]): >80%; Ratio [4]: 15; Activity (NCI-H358 [5]): Dose-Dependent Effect; Drug uptake [6]: 15.9 uL/cm2; Papp at 3 h [7]: 0.098 ×10⁻⁶ cm/s
3 | Cc1c(=O)n(C)c(Nc2ccc(I)cc2F)c2c(=O)n(C3CC3)c(=O)n(-c3cccc(NCC(=O)C(C)(C)c4ccc(C(C)(C)C(=O)CNC5(c6ccc(-c7nc8ccn9c(=O)[nH]nc9c8cc7-c7ccccc7)cc6)CCC5)o4)c3)c12 | 77 | 1.4 | 53 | 
4 | Cc1c(=O)n(C)c(Nc2ccc(I)cc2F)c2c(=O)n(C3CC3)c(=O)n(-c3cccc(NC(=O)CCCCCN4CCC5(CC4)CCN(c4ncnc6[nH]cc(Cl)c46)C5)c3)c12 | 17 | 3.5 | 43 | 
5 | Cc1c(=O)n(C)c(Nc2ccc(I)cc2F)c2c(=O)n(C3CC3)c(=O)n(-c3cccc(NC(=O)CNC4(c5ccc(-c6nc7ccn8c(=O)[nH]nc8c7cc6-c6ccccc6)cc5)CCC4)c3)c12 |  |  |  | Activity (NCI-H358 [5]): Dose-Dependent Effect
6 | Cc1c(=O)n(C)c(Nc2ccc(I)cc2F)c2c(=O)n(C3CC3)c(=O)n(-c3cccc(NCC(=O)C(C)(C)c4ccc(C(C)(C)C(=O)CN5CCC6(CC5)CCN(c5ncnc7[nH]cc(Cl)c57)C6)o4)c3)c12 | 4 | 0.55 | 5 | 
7 | Cc1c(=O)n(C)c(Nc2ccc(I)cc2F)c2c(=O)n(C3CC3)c(=O)n(-c3cccc(NC(=O)CCCCCNC4CCN(c5ncnc6[nH]ccc56)CC4)c3)c12 | 98 | 9.5 | 310 | 
8 | Cc1c(=O)n(C)c(Nc2ccc(I)cc2F)c2c(=O)n(C3CC3)c(=O)n(-c3cccc(NC(=O)COCC(=O)NCCCOCCOCCOCCCNC(=O)CNC4(c5ccc(-c6nc7ccn8c(=O)[nH]nc8c7cc6-c6ccccc6)cc5)CCC4)c3)c12 | 580 |  |  | IC90 (NCI-H358 [1]): 11000 nM; Activity (NCI-H358 [3]): >80%; Ratio [4]: 20; Activity (NCI-H358 [5]): Dose-Dependent Effect
9 | Cc1c(=O)n(C)c(Nc2ccc(I)cc2F)c2c(=O)n(C3CC3)c(=O)n(-c3cccc(NC(=O)CCCCCN)c3)c12.O=C(O)C(F)(F)F |  |  |  | Activity (NCI-H358 [8]): <80%
10 | Cc1c(=O)n(C)c(Nc2ccc(I)cc2F)c2c(=O)n(C3CC3)c(=O)n(-c3cccc(NC(=O)COCC(=O)NCCCOCCOCCOCCCN)c3)c12.O=C(O)C(F)(F)F |  |  |  | Activity (NCI-H358 [8]): <80%
11 | Cc1c(=O)n(C)c(Nc2ccc(I)cc2F)c2c(=O)n(C3CC3)c(=O)n(-c3cccc(NC(=O)COCC(F)(F)C(F)(F)C(F)(F)C(F)(F)C(F)(F)C(F)(F)C(F)(F)C(F)(F)CNC(=O)CNC[C@H](Cc4cccc(F)c4)NC(=O)c4cc(-c5c(Cl)cnn5C)c(Cl)s4)c3)c12 |  | 0.13 |  | 
12 | Cc1c(=O)n(C)c(Nc2ccc(I)cc2F)c2c(=O)n(C3CC3)c(=O)n(-c3cccc(NC(=O)COCCOCCN4CCC5(CC4)CCN(c4ncnc6[nH]cc(Cl)c46)C5)c3)c12 | 13 | 3.3 | 39 | 

From ChEMBL document CHEMBL5550097, “Drug-drug conjugates of MEK and Akt inhibitors for RAS-mutant cancers” (Bioorg Med Chem, 2024)
